In patent US20150266850A1 (E.I.DU PONT DE NEMOURS AND COMPANY, priority 2012, published 2015):
Marks after values point to notes of the source that are not given here.

How the values were obtained:
Type in all cases: in vivo
Conditions in all cases: 100 = 100% disease control
[1] = test system: Erysiphe graminis f. sp. tritici; assay: Test A: wheat powdery mildew, preventive spray on wheat seedlings, visual disease rating
Text: (§1) General protocol for preparing test suspensions for Tests A-E: the test compounds were first dissolved in acetone in an amount equal to 11% of the final volume and then suspended at the desired concentration (in ppm) in acetone and purified water (50/50 mix by volume) containing 250 ppm of the surfactant Trem® 014 (polyhydric alcohol esters). The resulting test suspensions were then used in Tests A-E. Spraying a 200 ppm test suspension to the point of run-off on the test plants was the equivalent of a rate of 800 g/ha.
The test suspension was sprayed to the point of run-off on wheat seedlings. The following day the seedlings were inoculated with a spore dust of Erysiphe graminis f. sp. tritici, (the causal agent of wheat powdery mildew) and incubated in a growth chamber at 20° C. for 8 days, after which time disease ratings were visually made.
(§2) Results for Tests A-E are given in Table A. In the Table, a rating of 100 indicates 100% disease control and a rating of 0 indicates no disease control (relative to the controls). A dash (-) indicates no test results. All results are for 200 ppm except where followed by an “*”, which indicates 40 ppm or “**”, which indicates 50 ppm.

[2] = test system: Puccinia recondita f sp. tritici; assay: Test B: wheat leaf rust, preventive spray on wheat seedlings, visual disease rating
Text: as §1
The test suspension was sprayed to the point of run-off on wheat seedlings. The following day the seedlings were inoculated with a spore suspension of Puccinia recondita f sp. tritici (the causal agent of wheat leaf rust) and incubated in a saturated atmosphere at 20° C. for 24 h, and then moved to a growth chamber at 20° C. for 7 days, after which time disease ratings were visually made.
as §2

Septoria tritici = assay: Test C: wheat leaf blotch, preventive spray on wheat seedlings, visual disease rating
Text: as §1
(§3) The test suspension was sprayed to the point of run-off on wheat seedlings. The following day the seedlings were inoculated with a spore suspension of Septoria tritici (the causal agent of wheat leaf blotch) and incubated in a saturated atmosphere at 24° C. for 48 h, and then moved to a growth chamber at 20° C. for 19 days, after which time disease ratings were visually made.
as §2

Septoria nodorum = assay: Test D: wheat glume blotch, preventive spray on wheat seedlings, visual disease rating
Text: as §1
as §3, with “nodorum” for “tritici”, “glume” for “leaf”, “20°” for “24°”, “7” for “19”
as §2

Botrytis cinerea = assay: Test E: tomato botrytis, preventive spray on tomato seedlings, visual disease rating
Text: as §1
The test suspension was sprayed to the point of run-off on tomato seedlings. The following day the seedlings were inoculated with a spore suspension of Botrytis cinerea (the causal agent of tomato botrytis) and incubated in saturated atmosphere at 20° C. for 48 h, and then moved to a growth chamber at 27° C. for 3 additional days, after which time disease ratings were visually made.
as §2

Compound | Test A disease control rating ([1]; 200 ppm) | Test B disease control rating ([2]; 200 ppm) | Test C disease control rating (Septoria tritici; 200 ppm) | Test D disease control rating (Septoria nodorum; 200 ppm) | Test E disease control rating (Botrytis cinerea; 200 ppm) | Test A disease control rating ([1]; 40 ppm (*)) | Test B disease control rating ([2]; 40 ppm (*)) | Test C disease control rating (Septoria tritici; 40 ppm (*)) | Test D disease control rating (Septoria nodorum; 40 ppm (*)) | Test E disease control rating (Botrytis cinerea; 40 ppm (*))
COC(=O)NCc1cc(-c2ccn(-c3ccc(F)cc3OC)n2)ccc1C [Cmpd 27] | 100% | 100% | 100% | 100% | 54% | – | – | – | – | –
COC(=O)NCc1cc(-c2ccn(-c3ccc(C)cc3OC)n2)ccc1C [Cmpd 29] | 99% | 100% | 100% | 100% | 63% | – | – | – | – | –
COC(=O)NCc1cc(-n2ccc(-c3ccc(F)cc3F)n2)ccc1C [Cmpd 30] | 100% | 100% | 100% | 100% | 0% | – | – | – | – | –
COC(=O)NCc1cc(-c2ccn(-c3ccc(OC)cc3OCC#N)n2)ccc1C [Cmpd 32] | 94% | 100% | 100% | 100% | 66% | – | – | – | – | –
COC(=O)NCc1cc(-c2ccn(-c3ccc(Cl)cc3O)n2)ccc1C [Cmpd 33] | 0% | 94% | 2% | 100% | 0% | – | – | – | – | –
C#CCOc1cc(Cl)ccc1-n1ccc(-c2ccc(C)c(CNC(=O)OC)c2)n1 [Cmpd 34] | 100% | 100% | 100% | 100% | 91% | – | – | – | – | –
COC(=O)NCc1cc(-c2ccn(-c3ccc(Cl)cc3OCC#N)n2)ccc1C [Cmpd 35] | 92% | 100% | 100% | 100% | 41% | – | – | – | – | –
COC(=O)NCc1cc(-n2ccc(-c3ccc(Cl)cc3C)n2)ccc1C [Cmpd 36] | – | – | – | – | – | 100* % | 100* % | 100* % | 100* % | 74* %
COC(=O)NCc1cc(-n2ccc(-c3ccc(F)cc3C)n2)ccc1C [Cmpd 37] | – | – | – | – | – | 95* % | 100* % | 100* % | 100* % | 77* %
COC(=O)NCc1cc(-n2ccc(-c3ccc(Cl)cc3F)n2)ccc1C [Cmpd 39] | – | – | – | – | – | 99* % | 100* % | 100* % | 100* % | 53* %
COC(=O)NCc1cc(-n2ccc(-c3ccc(F)cc3Cl)n2)ccc1C [Cmpd 40] | – | – | – | – | – | 100* % | 100* % | 100* % | 100* % | 80* %
COC(=O)NCc1cc(-n2ccc(-c3ccc(C)cc3Cl)n2)ccc1C [Cmpd 41] | – | – | – | – | – | 100* % | 100* % | 100* % | 100* % | 36* %
COC(=O)NCc1cc(-n2ccc(-c3ccc(C)cc3F)n2)ccc1C [Cmpd 42] | – | – | – | – | – | 100* % | 100* % | 99* % | 100* % | 65* %
COC(=O)NCc1cc(-n2ccc(-c3ccc(C)nc3Cl)n2)ccc1C [Cmpd 43] | – | – | – | – | – | 98* % | 100* % | 87* % | 100* % | 62* %
